Experimental data as given in patent US20220315621A1, “COMPOSITIONS AND METHODS FOR TREATING CNS DISORDERS” (priority 2017, published 2022).

biological target: GABAA receptor (rat brain cortical membranes, [35S]-TBPS binding); conditions: Table I-4; rat brain cortical membranes, 3 nM [35S]-TBPS, in the presence of 5 mM GABA

Compound | IC50 [nM]
C[C@@]1(O)CC[C@H]2[C@H](CC[C@@H]3[C@@H]2CC[C@]2(C)[C@@H](Nc4cccc(Cl)c4)CCC[C@@H]32)C1 [Compound I-9, (2R,4aS,4bR,6aS,7S,10aS,10bR,12aR)-7-((3-chlorophenyl)amino)-2,6a-dimethyloctadecahydrochrysen-2-ol] | 10 to 100
C[C@@]1(O)CC[C@H]2[C@H](CC[C@@H]3[C@@H]2CC[C@]2(C)[C@H](Nc4ccc(F)cc4)CCC[C@@H]32)C1 [Compound I-11a, (2R,4aS,4bR,6aS,7R,10aS,10bR,12aR)-7-((4-fluorophenyl)amino)-2,6a-dimethyloctadecahydrochrysen-2-ol] | 1000 to 10000
COC[C@@]1(O)CC[C@H]2[C@@H](CC[C@@H]3[C@@H]2CC[C@]2(C)[C@@H](C(=O)NCc4ccccn4)CCC[C@@H]32)C1 [Compound I-26, (1S,4aS,4bR,6aS,8R,10aS,10bR,12aS)-8-hydroxy-8-(methoxymethyl)-12a-methyl-N-(pyridin-2-ylmethyl)octadecahydrochrysene-1-carboxamide] | 100 to 1000
CCN(CC)C(=O)[C@H]1CCC[C@H]2[C@@H]3CC[C@H]4C[C@@](O)(COC)CC[C@@H]4[C@H]3CC[C@]12C [I-M3, (1S,4aS,4bR,6aS,8R,10aS,10bR,12aS)—N,N-diethyl-8-hydroxy-8-(methoxymethyl)-12a-methyloctadecahydrochrysene-1-carboxamide] | 100 to 1000
Cc1nnnn1CC(=O)[C@H]1CCC[C@H]2[C@@H]3CC[C@@H]4C[C@](C)(O)CC[C@]4(C)[C@H]3CC[C@]12C [Compound I-20a, 1-((1S,4aS,4bR,6aR,8R,10aS,10bS,12aS)-8-hydroxy-8,10a,12a-trimethyloctadecahydrochrysen-1-yl)-2-(5-methyl-1H-tetrazol-1-yl)ethan-1-one] | 100 to 1000
C[C@@]1(O)CC[C@H]2[C@H](CC[C@@H]3[C@@H]2CC[C@]2(C)[C@@H](C(=O)NCc4ccccn4)CCC[C@@H]32)C1 [Compound I-17, (1S,4aS,4bR,6aR,8R,10aS,10bR,12aS)-8-hydroxy-8,12a-dimethyl-N-(pyridin-2-ylmethyl)octadecahydrochrysene-1-carboxamide] | 10 to 100
COC[C@@]1(OC)CC[C@H]2[C@H](CC[C@@H]3[C@@H]2CC[C@]2(C)[C@@H](O)CCC[C@@H]32)C1 [I-L9, (1S,4aS,4bR,6aR,8R,10aS,10bR,12aS)-8-methoxy-8-(methoxymethyl)-12a-methyloctadecahydrochrysen-l-ol] | 1000 to 10000
C[C@@H]1CC[C@H]2[C@@H]3CC[C@@H]4C[C@](C)(O)CC[C@@H]4[C@H]3CC[C@]2(C)C1=O [Compound I-50, (2R,4aS,4bR,6aR,8R,10aS,10bR,12aS)-8-hydroxy-2,8,12a-trimethylhexadecahydrochrysen-1(2H)-one] | 1000 to 10000
C[C@@]1(O)CC[C@H]2[C@H](CC[C@@H]3[C@@H]2CC[C@]2(C)C[C@@H](C(=O)Cn4cc(C#N)cn4)CC[C@@H]32)C1 [I-R17, 1-(2-((2S,4aS,4bR,6aR,8R,10aS,10bR,12aR)-8-hydroxy-8,12a-dimethyloctadecahydrochrysen-2-yl)-2-oxoethyl)-1H-pyrazole-4-carbonitrile] | 1000 to 10000
C[C@@]1(O)CC[C@H]2[C@H](CC[C@@H]3[C@@H]2CC[C@]2(C)[C@@H](C(=O)Nc4ccccc4)CCC[C@@H]32)C1 [Compound I-15, (1S,4aS,4bR,6aR,8R,10aS,10bR,12aS)-8-hydroxy-8,12a-dimethyl-N-phenyloctadecahydrochrysene-1-carboxamide] | 10 to 100
C[C@@]1(O)CC[C@H]2[C@H](CC[C@@H]3[C@@H]2CC[C@]2(C)[C@@H](Nc4ccc(C#N)cc4)CCC[C@@H]32)C1 [Compound I-7, 4-(((1S,4aS,4bR,6aR,8R,10aS,10bR,12aS)-8-hydroxy-8,12a-dimethyloctadecahydrochrysen-1-yl)amino)benzonitrile] | 10 to 100

same assay, conditions: Table I-5; rat brain cortical membranes, 3 nM [35S]-TBPS, in the presence of 5 mM GABA

Compound | IC50 [nM]
CC(=O)[C@@H]1C[C@H]2[C@@H]3CC[C@@H]4C[C@](C)(O)CC[C@]4(C)[C@H]3CC[C@]12C [Compound I-103a, 1-((1R,2aS,2bR,4aR,6R,8aS,8bS,10aS)-6-hydroxy-6,8a,10a-trimethylhexadecahydrocyclobuta[a]phenanthren-1-yl)ethan-1-one] | 1000 to 10000
CC(=O)[C@H]1C[C@H]2[C@@H]3CC[C@@H]4C[C@](C)(O)CC[C@@H]4[C@H]3CC[C@]12C [I-AA8, 1-((1S,2aS,2bR,4aR,6R,8aS,8bR,10aS)-6-hydroxy-6,10a-dimethylhexadecahydrocyclobuta[a]phenanthren-1-yl)ethan-1-one] | 100 to 1000
C[C@@]1(O)CC[C@H]2[C@H](CC[C@@H]3[C@@H]2CC[C@]2(C)[C@@H](C(=O)Nc4ccccc4)C[C@@H]32)C1 [I-AA6, (1S,2aS,2bR,4aR,6R,8aS,8bR,10aS)-6-hydroxy-6,10a-dimethyl-N-phenylhexadecahydrocyclobuta[a]phenanthrene-1-carboxamide] | 1000 to 10000
COC[C@@]1(O)CC[C@H]2[C@H](CC[C@@H]3[C@@H]2CC[C@]2(C)[C@@H](C(=O)N4CCCC[C@@H]4C)C[C@@H]32)C1 [I-AC9, ((1S,2aS,2bR,4aR,6R,8aS,8bR,10aS)-6-hydroxy-6-(methoxymethyl)-10a-methylhexadecahydrocyclobutaialphenanthren-1-yl)((S)-2-methylpiperidin-1-yl)methanone] | 1000 to 10000
C[C@@]1(O)CC[C@H]2[C@H](CC[C@@H]3[C@@H]2CC[C@]2(C)[C@@H](C(=O)Cn4ccnn4)C[C@@H]32)C1 [I-AA12, 1-((1S,2aS,2bR,4aR,6R,8aS,8bR,10aS)-6-hydroxy-6,10a-dimethylhexadecahydrocyclobuta[a]phenanthren-1-yl)-2-(1H-1,2,3-triazol-1-yl)ethan-1-one] | 1000 to 10000
C[C@@]1(O)CC[C@@]2(C)[C@H](CC[C@@H]3[C@@H]2CC[C@]2(C)[C@@H](C(=O)Cn4nccn4)C[C@@H]32)C1 [Compound I-107, 1-((1S,2aS,2bR,4aR,6R,8aS,8bS,10aS)-6-hydroxy-6,8a,10a-trimethylhexadecahydrocyclobuta[a]phenanthren-1-yl)-2-(2H-1,2,3-triazol-2-yl)ethan-1-one] | 1000 to 10000
C[C@@]1(O)CC[C@@]2(C)[C@H](CC[C@@H]3[C@@H]2CC[C@]2(C)[C@@H](C(=O)Cn4cc(C#N)cn4)C[C@@H]32)C1 [Compound I-106, 1-(2-((1S,2aS,2bR,4aR,6R,8aS,8bS,10aS)-6-hydroxy-6,8a,10a-trimethylhexadecahydrocyclobuta[a]phenanthren-1-yl)-2-oxoethyl)-1H-pyrazole-4-carbonitrile] | 100 to 1000
C[C@@]1(O)CC[C@H]2[C@H](CC[C@@H]3[C@@H]2CC[C@]2(C)[C@H](CO)C[C@@H]32)C1 [I-AB1a, (1R,2aS,2bR,4aR,6R,8aS,8bR,10aS)-1-(hydroxymethyl)-6,10a-dimethylhexadecahydrocyclobuta[a]phenanthren-6-ol] | 1000 to 10000

same assay, conditions: Table I-6; rat brain cortical membranes, 3 nM [35S]-TBPS, in the presence of 5 mM GABA

Compound | IC50 [nM]
COC[C@H]1CCCC[C@H]2[C@@H]3CC[C@@H]4C[C@](C)(O)CC[C@@H]4[C@H]3CC[C@]12C [I-BA6, (2R,4aS,4bR,6aS,7S,11aS,11bR,13aR)-7-(methoxymethyl)-2,6a-dimethyloctadecahydro-1H-cyclohepta[a]phenanthren-2-ol] | 100 to 1000
C[C@@]1(O)CC[C@H]2[C@H](CC[C@@H]3[C@@H]2CC[C@]2(C)[C@H](C(=O)Nc4ccccc4)CCCC[C@@H]32)C1 [I-BA17a, (2R,4aS,4bR,6aS,7R,11aS,11bR,13aR)-2-hydroxy-2,6a-dimethyl-N-phenyloctadecahydro-1H-cyclohepta[a]phenanthrene-7-carboxamide] | 100 to 1000
C[C@@]1(O)CC[C@H]2[C@H](CC[C@@H]3[C@@H]2CC[C@]2(C)C[C@@H](C(=O)Nc4ccccc4)CCC[C@@H]32)C1 [I-BC11, (2R,4aS,4bR,6aR,8S,11aS,11bR,13aR)-2-hydroxy-2,6a-dimethyl-N-phenyloctadecahydro-1H-cyclohepta[a]phenanthrene-8-carboxamide] | 1000 to 10000
C[C@@]1(O)CC[C@H]2[C@H](CC[C@@H]3[C@@H]2CC[C@]2(C)[C@H](CO)CCCC[C@@H]32)C1 [I-BA5a, (2R,4aS,4bR,6aS,7R,11aS,11bR,13aR)-7-(hydroxymethyl)-2,6a-dimethyloctadecahydro-1H-cyclohepta[a]phenanthren-2-ol] | 1000 to 10000
C[C@@]1(O)CC[C@H]2[C@H](CC[C@@H]3[C@@H]2CC[C@]2(C)[C@H](C#N)CCCC[C@@H]32)C1 [I-BA16a, (2R,4aS,4bR,6aS,7R,11aS,11bR,13aR)-2-hydroxy-2,6a-dimethyloctadecahydro-1H-cyclohepta[a]phenanthrene-7-carbonitrile] | 1000 to 10000
C[C@@]1(O)CC[C@H]2[C@H](CC[C@@H]3[C@@H]2CC[C@]2(C)[C@@H](C#N)CCCC[C@@H]32)C1 [I-BA16, (2R,4aS,4bR,6aS,7S,11aS,11bR,13aR)-2-hydroxy-2,6a-dimethyloctadecahydro-1H-cyclohepta[a]phenanthrene-7-carbonitrile] | 10 to 100
C[C@@]1(O)CC[C@H]2[C@H](CC[C@@H]3[C@@H]2CC[C@]2(C)[C@H](O)CCCC[C@@H]32)C1 [I-BA12, (2R,4aS,4bR,6aS,7R,11aS,11bR,13aR)-2,6a-dimethyloctadecahydro-1H-cyclohepta[a]phenanthrene-2,7-diol] | 1000 to 10000
C[C@@]1(O)CC[C@H]2[C@H](CC[C@@H]3[C@@H]2CC[C@]2(C)[C@@H](CO)CCCC[C@@H]32)C1 [I-BA5b, (2R,4aS,4bR,6aS,7S,11aS,11bR,13aR)-7-(hydroxymethyl)-2,6a-dimethyloctadecahydro-1H-cyclohepta[a]phenanthren-2-ol] | 100 to 1000
